pIC50: −log10 of the molar value. Read-outs that look alike come from different tables or passages of the source.
Key:
[1] = test system: LS513 colon cancer cell with KRAS G12D mutation; test: Proliferation inhibition on RAS cell lines measured by CTG, LS513; format: cell-based; conditions: LS513 cells, incubated for 6 days
Excerpt: NCI-H358 is a human non-small cell lung cancer cell line with KRAS G12C mutation; AGS is a gastric cancer cell line with KRAS G12D mutation; SW620 is a colon cancer cell with KRAS G12V mutation; NCI-H460 is a non-small cell lung cancer cell with KRAS Q61H mutation; MKN1 is a wild-type gastric cancer cell with KRAS-amplified; LS513 is a colon cancer cell with KRAS G12D mutation; LoVo is a colon cancer cell with KRAS G13D mutation; NCI-H441 is a lung cancer cell with KRAS G12V mutation, and Capan-2 is a pancreatic cancer cell with KRAS G12V mutation.
(§1) The proliferation inhibitory effect of the compounds on various mutations was evaluated by determining the proliferation inhibitory activity of the compounds on these cell lines.
(§2) The assay was conducted on either 384-well plates or 96-well plates. The procedures are as follows:
(§3) The cell suspensions were added to 384- or 96-well plates (384-well plate: 50 μL; 96-well plate: 100 μL) except for peripheral wells. The plates were placed in a carbon dioxide incubator overnight. NCI-H358, AGS, NCI-H460, MKN-1, LS513, LoVo, and NCI-H441 were placed in a 5%, 370 carbon dioxide incubator overnight, and SW620 was placed in a 0%, 370 carbon dioxide incubator overnight. The HPD300 micro-dosing instrument was used to add the corresponding concentration of compound to each well (9-10 concentration gradients of compound were obtained by 3-fold dilution). Cell plates were incubated in a carbon dioxide incubator for 5-6 days. NCI-H358, AGS, NCI-H460 and MKN-1 were incubated at 5%, 37° incubator and SW620 was incubated at 0%, 370 incubator. On the day of plate measurement, the 384- or 96-well plates were first equilibrated at room temperature for 10-30 min, then CellTiter Glo reagent (384-well plate: 25 μL; 96-well plate: 100 μL) was added to the 384- or 96-well plate, shaken for 10 min away from light, and incubated for 10 min. The plates were placed into Victor NIVO or ENVIDION reader plates, and XLFit was utilized to plot the pharmacodynamic inhibition curve and calculate the IC50 value. “IC50>10 μM” is denoted by “*”, “10 μM≥IC50≥1 μM” is denoted by “**”, and “1 μM≥IC50>100 nM” is denoted by “***”, “IC50<100 nM” is denoted by “****”

GP2D cells = test: Proliferation inhibition on RAS cell lines measured by CTG, GP2D; format: cell-based; conditions: CellTiter Glo
Experimental: as §1, §2, §3

[2] = Homo sapiens, LS-513, 144 h, Table 1, CellTiter Glo, read-out: IC50 (LS513^f)
[3] = Homo sapiens, LS-513, 144 h, Table 2, CellTiter Glo, read-out: IC50 (LS513^f)
[4] = 144 h, Table 2, incubated for 6 days, read-out: IC50 (GP2D^j)
[5] = 144 h, Table 3, incubated for 6 days, read-out: IC50 (GP2D^l)
[6] = Homo sapiens, LS-513, 144 h, Table 3, CellTiter Glo, read-out: IC50 (LS513^k)
[7] = Table 3, incubated for 6 days, read-out: IC50 (GP2D^l)

C#Cc1c(F)ccc2cc(O)cc(-c3ncc4c(N5CCCCCN5C(=O)OC(C)(C)C)nc(OC[C@@]56CCCN5C[C@H](F)C6)nc4c3F)c12 [Compound 12]
pIC50 [1, 2]: > 7.00

C#Cc1c(F)ccc2cc(O)cc(-c3ncc4c(N5CCCCCN5)nc(OCC5(CN(C)C)CC5)nc4c3F)c12 [Compound 13]
pIC50 ([1]; Table 1, CellTiter Glo, read-out: IC50 (LS513^f)): > 7.00

C#Cc1c(F)ccc2cc(O)cc(-c3ncc4c(N5CCCCCN5C(=O)OC(C)(C)C)nc(OCC5(CN(C)C)CC5)nc4c3F)c12 [Compound 14]
pIC50 [1, 2]: 6.00 to 7.00

C#Cc1c(F)ccc2cc(O)cc(-c3ncc4c(N5CCCCN5)nc(OC[C@@]56CCCN5C[C@H](F)C6)nc4c3F)c12 [Compound 16]
pIC50 ([1]; Homo sapiens, LS-513, 144 h, Table 1, numeric value, read-out: IC50 (LS513^f)): 7.93
pIC50 [1, 2]: > 7.00

C#Cc1c(F)ccc2cc(O)cc(-c3ncc4c(N5CCCCCN5C(=O)OCC)nc(OC[C@@]56CCCN5C[C@H](F)C6)nc4c3F)c12 [Compound 20]
pIC50 [1, 3]: 6.00 to 7.00

C#Cc1c(F)ccc2cc(O)cc(-c3ncc4c(N5CCCCCN5)nc(OCC56CCCN5C/C(=C/F)C6)nc4c3F)c12 (stereo not shown) [Compound 21]
pIC50 [1, 2]: > 7.00

C#Cc1c(F)ccc2cc(O)cc(-c3ncc4c(N5CCCCCN5)nc(OCC56CCCN5CC(=C(F)F)C6)nc4c3F)c12 (stereo not shown) [Compound 22]
pIC50 [1, 2]: > 7.00

C#Cc1c(F)ccc2cc(O)cc(-c3ncc4c(N5CCNCCN5)nc(OC[C@@]56CCCN5C[C@H](F)C6)nc4c3F)c12 [Compound 40]
pIC50 [1, 3]: 5.00 to 6.00

N#Cc1c(N)sc2c(F)ccc(-c3c(Cl)cc4c(N5CCCCCN5)nc(OC[C@@]56CCCN5C[C@H](F)C6)nc4c3F)c12 [Compound 42]
pIC50 [1, 3]: 6.00 to 7.00

C=Cc1cc2c(N3CCCCCN3)nc(OC[C@@]34CCCN3C[C@H](F)C4)nc2c(F)c1-c1ccc(F)c2sc(N)c(C#N)c12 [Compound 43]
pIC50 [1, 3]: > 7.00

CCc1cc2c(N3CCCCCN3)nc(OC[C@@]34CCCN3C[C@H](F)C4)nc2c(F)c1-c1ccc(F)c2sc(N)c(C#N)c12 [Compound 44]
pIC50 [1, 3]: > 7.00

CCc1c(F)ccc2cc(O)cc(-c3ncc4c(N5CCCCCN5)nc(OCC5(CN6CCOCC6)CC5)nc4c3F)c12 [Compound 46]
pIC50 [1, 3]: > 7.00

C#Cc1c(F)ccc2cc(O)cc(-c3ncc4c(N5CCCCCN5)nc(OCC5(CN6CCCCC6)CC5)nc4c3F)c12 [Compound 47]
pIC50 [1, 3]: > 7.00

N#Cc1c(N)sc2c(F)ccc(-c3c(C(F)(F)F)cc4c(N5CCCCCN5)nc(OC[C@@]56CCCN5C[C@H](F)C6)nc4c3F)c12 [Compound 48]
pIC50 [1, 3]: > 7.00

CCc1c(F)ccc2cc(O)cc(N3CCc4c(nc(OC[C@@]56CCCN5C[C@H](F)C6)nc4N4CCCCCN4)C3)c12 [Compound 51]
pIC50 [1, 3]: > 7.00

C#Cc1c(F)ccc2cc(O)cc(-c3ncc4c(N5CCCCCN5)nc(OCC5(CN6CCN(C)CC6)CC5)nc4c3F)c12 [Compound 52]
pIC50 [1, 3]: 6.00 to 7.00

C#Cc1c(F)ccc2cc(O)cc(-c3ncc4c(N5CCCCCN5)nc(OCC5(CN6CCCC6)CC5)nc4c3F)c12 [Compound 53]
pIC50 [1, 3]: 6.00 to 7.00

C#Cc1c(F)ccc2cc(O)cc(-c3c(C(F)(F)F)cc4c(N5CCCCCN5)nc(OC[C@@]56CCCN5C[C@H](F)C6)nc4c3F)c12 [Compound 54]
pIC50 (GP2D cells; [4]): 6.00 to 7.00

C#Cc1c(F)ccc2cc(O)cc(-c3ncc4c(N5CCCC(F)(F)CN5)nc(OC[C@@]56CCCN5C[C@H](F)C6)nc4c3F)c12 [Compound 56]
pIC50 [1, 3]: > 7.00

C#Cc1c(F)ccc2cc(O)cc(-c3ncc4c(N5CCCCCN5)nc(OCC56CCCN5C(COc5cc(C(F)(F)F)cnn5)CC6)nc4c3F)c12 (stereo not shown) [Compound 58]
pIC50 (GP2D cells; [4]): > 7.00
pIC50 [1, 3]: > 7.00

C#Cc1c(F)ccc2cc(O)cc(-c3ncc4c(N5CCCCCN5)nc(OCC56CCCN5C(COc5cc(C(F)(F)F)ncn5)CC6)nc4c3F)c12 (stereo not shown) [Compound 60]
pIC50 (GP2D cells; [4]): > 7.00
pIC50 [1, 3]: > 7.00

C#Cc1c(F)ccc2c(F)c(O)cc(-c3ncc4c(N5CCCCCN5)nc(OC[C@@]56CCCN5C[C@H](F)C6)nc4c3F)c12 [Compound 64]
pIC50 (GP2D cells; [4]): > 7.00
pIC50 [1, 3]: > 7.00

Oc1cc(-c2ncc3c(N4CCCCCN4)nc(OC[C@@]45CCCN4C[C@H](F)C5)nc3c2F)c2c(F)c(F)ccc2c1 [Compound 66]
pIC50 (GP2D cells; [4]): > 7.00

C#Cc1c(F)ccc2cc(O)cc(-c3ncc4c(N5CCCCCN5C(=O)C(F)(F)F)nc(OC[C@@]56CCCN5C[C@H](F)C6)nc4c3F)c12 [Compound 68]
pIC50 (GP2D cells; [4]): > 7.00
pIC50 [1, 3]: > 7.00

C#Cc1c(F)ccc2cc(OC(=O)NCCCCCCCC)cc(-c3ncc4c(N5CCCCCN5)nc(OC[C@@]56CCCN5C[C@H](F)C6)nc4c3F)c12 [Compound 69]
pIC50 (GP2D cells; [4]): > 7.00
pIC50 [1, 3]: > 7.00

C#Cc1c(F)ccc2cc(O)cc(-c3ncc4c(N5CCCCCN5)nc(OC[C@@H]5CCCN5C)nc4c3F)c12 [Compound 72]
pIC50 (GP2D cells; [4]): > 7.00
pIC50 [1, 3]: > 7.00

C#Cc1c(F)ccc2cc(OC(=O)N3CCC(N4CCCCC4)CC3)cc(-c3ncc4c(N5CCCCCN5)nc(OC[C@@]56CCCN5C[C@H](F)C6)nc4c3F)c12 [Compound 73]
pIC50 (GP2D cells; [5]): 6.00 to 7.00
pIC50 [1, 6]: 6.00 to 7.00

C#Cc1c(F)ccc2cc(OC(=O)N3CCC[C@H]3COC)cc(-c3ncc4c(N5CCCCCN5)nc(OC[C@@]56CCCN5C[C@H](F)C6)nc4c3F)c12 [Compound 74]
pIC50 (GP2D cells; [5]): > 7.00
pIC50 [1, 6]: > 7.00

C#Cc1c(F)ccc2cc(O)cc(-c3ncc4c(N5CC=CCN5)nc(OC[C@@]56CCCN5C[C@H](F)C6)nc4c3F)c12 [Compound 76]
pIC50 (GP2D cells; [4]): 6.00 to 7.00

Nc1cc(Cl)c(C(F)(F)F)c(-c2ncc3c(N4CCCCCN4)nc(OC[C@@]45CCCN4C[C@H](F)C5)nc3c2F)c1 [Compound 81]
pIC50 (GP2D cells; [4]): 6.00 to 7.00
pIC50 [1, 3]: > 7.00

[2H]C([2H])(Oc1nc(N2CCCCCN2)c2cnc(-c3cc(O)cc4ccc(F)c(C#C)c34)c(F)c2n1)[C@@]12CCCN1C[C@H](F)C2 [Compound 82]
pIC50 (GP2D cells; [4]): > 7.00
pIC50 [1, 3]: > 7.00

C#Cc1c(F)ccc2cc(O)cc(-c3ncc4c(N5CCCCCN5)nc(OC[C@]56CCCN5[C@H](c5cc(F)c(F)c(F)c5)CC6)nc4c3F)c12 [Compound 85]
pIC50 (GP2D cells; [4]): 6.00 to 7.00
pIC50 [1, 3]: 6.00 to 7.00

C#Cc1c(F)ccc2cc(OC(=O)N(C)C)cc(-c3ncc4c(N5CCCCCN5)nc(OC[C@@]56CCCN5C[C@H](F)C6)nc4c3F)c12 [Compound 89]
pIC50 (GP2D cells; [5]): 6.00 to 7.00

C#Cc1c(F)ccc2cc(OC(=O)N3CCOCC3)cc(-c3ncc4c(N5CCCCCN5)nc(OC[C@@]56CCCN5C[C@H](F)C6)nc4c3F)c12 [Compound 90]
pIC50 (GP2D cells; [5]): > 7.00
pIC50 [1, 6]: > 7.00

C#Cc1c(F)ccc2cc(O)cc(-c3ncc4c(N5CCCCCN5)nc(OCC5(CN6CCC(OCC(=O)N[C@H](C(=O)N7C[C@H](O)C[C@H]7C(=O)N[C@@H](C)c7ccc(-c8scnc8C)cc7)C(C)(C)C)CC6)CC5)nc4c3F)c12 [Compound 108]
pIC50 (GP2D cells; [7]): > 7.00

C#Cc1c(F)ccc2cc(OC(=O)N3CCCC3)cc(-c3ncc4c(N5CCCCCN5)nc(OC[C@@]56CCCN5C[C@H](F)C6)nc4c3F)c12 [Compound 111]
pIC50 (GP2D cells; [5]): > 7.00

C#Cc1c(F)ccc2cc(O)cc(-c3ncc4c(N5CCCCCN5)nc(OCC5(CN6CCN(c7cc(F)c(F)c(F)c7)CC6)CC5)nc4c3F)c12 [Compound 130]
pIC50 (GP2D cells; [7]): 6.00 to 7.00

C#Cc1c(F)ccc2cc(O)cc(-c3ncc4c(N5CCCCCN5)nc(OCC5CN(c6nccn6C)C5)nc4c3F)c12 [Compound 138]
pIC50 (GP2D cells; [5]): 6.00 to 7.00

C#Cc1c(F)ccc2cc(O)cc(-c3ncc4c(N5CCCCCN5)nc(OCC5(C)C(C)CCN5CC=C)nc4c3F)c12 (stereo not shown) [Compound 148]
pIC50 (GP2D cells; [5]): > 7.00
